Holding throughout (experiment): DTP human tumour cell line panel, 48 h
The subject of experiment [1] is 786-0.
The test system of experiment [2] is HCT-116.
Experiment [3] relates to HCT-15.
Experiment [4] relates to Hs-578T.
Experiment [5] has as its system IGROV-1.
In experiment [6] the test system is M14.
Experiment [7] deals with MCF7.
In experiment [8] the test system is NCI/ADR-RES.
In experiment [9] the test system is OVCAR-8.
The test system of experiment [10] is PC-3.
Experiment [11] relates to RXF 393.
The subject of experiment [12] is SF-295.
For experiment [13], the system named is SF-539.
For experiment [14], the system named is SNB-19.
In experiment [15] the test system is SNB-75.
For experiment [16], the system named is T47D.
The test system of experiment [17] is U-251.
Experiment [18] relates to UACC-257.
Experiment [19] has as its system UACC-62.

Molecules are shown by their SMILES.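 Results reflect a 48-hour exposure of cells in 96-well plates to compound at five concentrations. At the GI50, growth is halved.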 The source made the active and inactive calls. No stated cut-off is given here; in the data, active = GI50 up to about 1.1 µM and inactive = higher.

Usually GI50 stands for the concentration at which growth is held to half of that of the control.

Take `CN(C)c1cccc(NC2=NCCO2)c1`: the GI50 was 46.6 µM (inactive) in experiment [1]; 35.9 µM (inactive) in [2]; 45.1 µM in experiment [3]; 43.6 µM (inactive) in experiment [4]; > 100 µM (inactive) in experiment [5]; 37.5 µM (inactive) in experiment [6]. The GI50 was 50.5 µM (inactive) in experiment [7]; 39.7 µM (inactive) in [8]; 66.8 µM (inactive) in experiment [9]; 31 µM (inactive) in experiment [10]; > 100 µM (inactive) in [11]; > 100 µM (inactive) in [12]. For the same compound, the GI50 is 46.6 µM (inactive) in experiment [13]; 52.8 µM (inactive) in experiment [14]; 41.2 µM (inactive) in experiment [15]; 69.2 µM (inactive) in experiment [16]; 83.8 µM (inactive) in [17]; 48.9 µM (inactive) in [18]. In [19], the GI50 is 50.7 µM (inactive).
Regarding `CCc1nc(N)nc(N)c1-c1ccc(Cl)c(/N=N/N(C)C)c1`, the GI50 in experiment [1] was 35 µM (inactive); in experiment [2], 15.4 µM (inactive); in [3], 17.1 µM; in experiment [4] it was 30.3 µM (inactive); in [5], 24.1 µM (inactive); in experiment [6] it was 22.5 µM (inactive). In addition, the GI50 in [7] is 37.7 µM (inactive); in experiment [8], 23.8 µM (inactive); in experiment [9], 40.5 µM (inactive); in experiment [10], 24.5 µM (inactive); in [11] it was 41.4 µM (inactive); in experiment [12] it was 26.5 µM (inactive). The GI50 was 23.1 µM (inactive) in [13]; 44.4 µM (inactive) in experiment [14]; 61 µM (inactive) in [15]; 39.7 µM (inactive) in [16]; 34.5 µM (inactive) in experiment [17]; 29.4 µM (inactive) in experiment [18]. For the same compound, the GI50 in experiment [19] is 24.9 µM (inactive).
As to `Cc1ccc(C(=N)Nc2ccccc2)cc1`, the GI50 in [1] is > 100 µM (inactive); in experiment [2], > 100 µM (inactive); in experiment [3], above 100 µM; in experiment [4] it was > 100 µM (inactive); in experiment [5], > 100 µM (inactive); in [6] it was > 100 µM (inactive). Besides, the GI50 in [7] is 41.9 µM (inactive); in experiment [8] it was > 100 µM (inactive); in experiment [9], > 100 µM (inactive); in experiment [10], > 100 µM (inactive); in experiment [11] it was > 100 µM (inactive); in experiment [12] it was > 100 µM (inactive). The GI50 was > 100 µM (inactive) in experiment [13]; > 100 µM (inactive) in experiment [14]; > 100 µM (inactive) in experiment [15]; > 100 µM (inactive) in experiment [16]; > 100 µM (inactive) in [17]; 38 µM (inactive) in experiment [18]. The GI50 in experiment [19] was > 100 µM (inactive).
As for `Clc1ccc(Cl)c(SCCCN2CCNCC2)c1`, the GI50 in experiment [1] was 20.1 µM (inactive); in [2], 18.3 µM (inactive); in experiment [3], 18.7 µM; in [4], 16.1 µM (inactive); in experiment [5] it was 18.2 µM (inactive); in experiment [6], 17.3 µM (inactive). The GI50 in [7] was 18.4 µM (inactive); in [8], 17.3 µM (inactive); in experiment [9], 20.3 µM (inactive); in experiment [10], 14.6 µM (inactive); in [11], 14.4 µM (inactive); in experiment [12] it was 17.8 µM (inactive). For the same compound, the GI50 was 27.5 µM (inactive) in experiment [13]; 16.9 µM (inactive) in [14]; 13.4 µM (inactive) in experiment [15]; 23.9 µM (inactive) in experiment [16]; 16.4 µM (inactive) in experiment [17]; 11.7 µM (inactive) in experiment [18]. Moreover, in [19], the GI50 was 2.61 µM (inactive).
As for `O=C1c2ccccc2C2(c3ccc(Cl)cc3)NCc3ccccc3CN12` (stereo not given), the GI50 in experiment [1] was 13.6 µM (inactive); in experiment [2], 10.8 µM (inactive); in experiment [3], 21.9 µM; in [4], 22.5 µM (inactive); in [5], 24.2 µM (inactive); in experiment [6], 18 µM (inactive). Moreover, the GI50 in experiment [7] was 17.4 µM (inactive); in experiment [8], 14 µM (inactive); in [9], 23.1 µM (inactive); in [10], 16.1 µM (inactive); in experiment [11], 16.1 µM (inactive); in experiment [12], 18.3 µM (inactive). Besides, the GI50 in experiment [13] was 16.3 µM (inactive); in [14], 17 µM (inactive); in [15], 52.8 µM (inactive); in [16], 16.4 µM (inactive); in experiment [17] it was 28.6 µM (inactive); in experiment [18] it was 33 µM (inactive). Further, the GI50 in experiment [19] is 17.3 µM (inactive).
`C/C(=C/CC[C@]1(CO)CC[C@]2(CO)[C@H](CC[C@@H]3[C@@]4(C)CC[C@H](OC5OCC(O)C(O)C5OC5OC(CO)C(O)C(O)C5O)C(C)(C)[C@@H]4CC[C@]32C)[C@H]1O)CO` (stereo not given in full): the GI50 in experiment [1], in experiment [2], in experiment [4], in [5], in experiment [6] and in experiment [7] was > 100 µM (inactive) each time. Moreover, the GI50 in experiment [8], in [9], in [10], in experiment [11], in experiment [12] and in experiment [13] was > 100 µM (inactive) in each case. For the same compound, the GI50 in [14], in experiment [15], in experiment [16], in [17], in [18] and in experiment [19] was > 100 µM (inactive) throughout.
For the compound `COC(=O)c1ccc2cc(O)c(O)cc2c1`, the GI50 was 41.8 µM (inactive) in [1]; 41 µM (inactive) in [2]; 33 µM in [3]; 22.8 µM (inactive) in experiment [4]; 26.7 µM (inactive) in [5]; 26.3 µM (inactive) in experiment [6]. Besides, the GI50 in [7] is 42.9 µM (inactive); in experiment [8], 25.6 µM (inactive); in experiment [9], 33 µM (inactive); in experiment [10], 32.4 µM (inactive); in experiment [11], 48.2 µM (inactive); in experiment [12], 38.3 µM (inactive). For the same compound, the GI50 was 40 µM (inactive) in experiment [13]; 22.8 µM (inactive) in experiment [14]; 90.8 µM (inactive) in experiment [15]; 25.8 µM (inactive) in experiment [16]; 29.6 µM (inactive) in experiment [17]; 29.8 µM (inactive) in experiment [18]. In addition, in [19], the GI50 is 26.2 µM (inactive).
On to `O=S(=O)(O)c1cc(S(=O)(=O)O)c2c(/N=N/c3ccc(/N=N/c4ccccc4)cc3)c(O)ccc2c1`, for which the GI50 was > 100 µM (inactive) in experiment [1]; > 100 µM (inactive) in [2]; above 100 µM in experiment [3]; > 100 µM (inactive) in experiment [4]; > 100 µM (inactive) in [5]; > 100 µM (inactive) in [6]. The GI50 in experiment [7], in experiment [8], in [9], in [10], in [11] and in experiment [12] was > 100 µM (inactive) throughout. For the same compound, the GI50 in experiment [13], in [14], in [15], in experiment [16], in experiment [17] and in [18] was > 100 µM (inactive) throughout. The GI50 in experiment [19] is > 100 µM (inactive).
Regarding `COc1ncc(/C=C2\OC(=O)c3ccccc32)c(OC)n1`, the GI50 in experiment [1] is 9.1 µM (inactive); in [2], > 100 µM (inactive); in [3], 65.2 µM; in experiment [4], 10.1 µM (inactive); in [5], 4.48 µM (inactive); in experiment [6], 72.3 µM (inactive). In addition, the GI50 in [7] is 25.8 µM (inactive); in experiment [8], 40.5 µM (inactive); in experiment [9], 8.13 µM (inactive); in experiment [10] it was 39 µM (inactive); in [11], 7 µM (inactive); in [12], 4.19 µM (inactive). The GI50 was 12.7 µM (inactive) in [13]; 26.5 µM (inactive) in experiment [14]; 6.44 µM (inactive) in [15]; 23.6 µM (inactive) in [16]; 13.6 µM (inactive) in experiment [17]; 57.3 µM (inactive) in experiment [18].
For `Clc1cccc(Cl)c1C1SCC2=Nc3ccccc3CN21` (stereo not given), the GI50 is 13.2 µM (inactive) in experiment [1]; 12.1 µM (inactive) in experiment [2]; 32 µM in experiment [3]; 24.8 µM (inactive) in [4]; 22.9 µM (inactive) in experiment [5]; 18.4 µM (inactive) in experiment [6]. Moreover, the GI50 in [7] was 20.2 µM (inactive); in [8], 19.4 µM (inactive); in experiment [10] it was 18.7 µM (inactive); in experiment [11], 27.8 µM (inactive); in experiment [12], 13.2 µM (inactive); in experiment [13], 16.2 µM (inactive). Moreover, the GI50 in experiment [14] was 5.18 µM (inactive); in [15] it was 38.3 µM (inactive); in experiment [16], 21.4 µM (inactive); in experiment [17], 33.2 µM (inactive); in experiment [18], 34.7 µM (inactive); in experiment [19], 27.4 µM (inactive).
As to `CC1(C)N=C(/C=N/O)C(C)(C)N1O`, the GI50 in experiment [1] was > 100 µM (inactive); in [2], > 100 µM (inactive); in experiment [3], above 100 µM; in experiment [4] it was > 100 µM (inactive); in experiment [5] it was > 100 µM (inactive); in [6] it was > 100 µM (inactive). The GI50 in experiment [7], in experiment [8], in experiment [9], in experiment [10], in experiment [11] and in [12] was > 100 µM (inactive) each time. Also, the GI50 is > 100 µM (inactive) in experiment [13]; 87.3 µM (inactive) in experiment [14]; > 100 µM (inactive) in [15]; > 100 µM (inactive) in experiment [16]; > 100 µM (inactive) in [17]; > 100 µM (inactive) in [19].

Values taken from ChEMBL document CHEMBL1201862, “PubChem BioAssay data set” (2004).
